From patent US20230024528A1, “METHODS OF USE OF ANTI-TREM2 ANTIBODIES” (Alector LLC, priority 2019, published 2023)

Tested on: human macrophages
Test: Human macrophage cell viability and survival following CSF1R inhibition with PLX3397, CellTiter-Glo
Format: cell-based
Conditions: PLX3397 30 nM alone, complete RPMI media
Experimental: To evaluate the ability of an anti-TREM2 antibody to sustain survival of human macrophages after CSF1R inhibition, the ability of AL2p-58 huIgG1 PSEG to enhance cell-viability and survival in the presence of CSF1R inhibitor PLX3397 was tested (DeNardo et al., Cancer Discov (2011) 1(1):54-67. 22039576t; Peng, et al., J. of Exp Canc Res (2019) 38(1):372. PMID: 31438996). Similar to CSF1 withdrawal experiments, human derived macrophages were plated onto 96-well plates on Day 6 and treated with IgG1, PLX3397 (30 nM), AL2p-58 huIgG1 PSEG (10 μg/mL) or a combination of PLX3397 and AL2p-58 huIgG1 PSEG on Day 7, all in complete RPMI media. Cell viability was quantified using the CellTiter-Glo luminescent viability assay (Promega) on each subsequent day.

FC(F)(F)c1ccc(CNc2ccc(Cc3c[nH]c4ncc(Cl)cc34)cn2)cn1 [PLX3397, reference compound]
cell viability of human macrophages treated with CSF1R inhibitor alone: reduced cell viability
